Source: patent publication US20160279164A1, “High-Molecular Weight Conjugate Of Resorcinol Derivatives” (Nippon Kayaku Kabushiki Kaisha, priority 2006, published 2016)

System: mouse colon cancer Colon26
Assay: Anti-tumor effect on mice transplanted with the mouse colon cancer Colon26
Type: in vivo
Conditions: 5 consecutive days, female CDF1 mice
Description: Tumor of mouse colon cancer, Colon26, maintained by serial subcutaneous subculture in BALB/cA mice, was minced into about 2-mm square blocks, and the blocks were transplanted subcutaneously on the dorsal part of a female CDF1 mice with a trocar. On the 7th day after tumor transplantation, the high-molecular weight conjugate of a resorcinol derivative (compound 1) of the present invention, and as a control, the included resorcinol derivative, 5-(2,4-dihydroxy-5-isopropyl-phenyl)-4-(4-methoxy-phenyl)-2,4-dihydro-[1,2,4]triazol-3-one), were administered intravenously to the mouse tail vein. Compound 1 of the present invention was dissolved in a 5% glucose injectable solution, and was administered once. The resorcinol derivative (the included compound) used as the control, was dissolved in DMSO, and TWEEN80 was added thereto, and then the mixture was diluted with a 5% glucose injectable solution. The dilution was administered once a day for 5 consecutive days. After the administration, the major diameter (L mm) and the minor diameter (W mm) of the tumor were measured regularly, and the tumor volume was calculated by the formula: (L×W^2)/2. Based on the tumor volume of the administration initiation day, the average relative tumor volume for each measurement day was determined (Table 1).

With `COc1ccc(-n2c(-c3cc(C(C)C)c(O)cc3O)n[nH]c2=O)cc1` [Included compound, 5-(2,4-dihydroxy-5-isopropyl-phenyl)-4-(4-methoxy-phenyl)-2,4-dihydro-[1,2,4]triazol-3-one] the “average relative tumor volume” value (day 0 after administration, 50 mg/kg/day i.v.) was 1.0, the “average relative tumor volume” value (day 0 after administration, 100 mg/kg/day i.v.) was 1.0 and the “average relative tumor volume” value (day 2 after administration, 50 mg/kg/day i.v.) was 1.6. The “average relative tumor volume” value (day 2 after administration, 100 mg/kg/day i.v.) was 1.1, the “average relative tumor volume” value (day 3 after administration, 50 mg/kg/day i.v.) was 1.6 and the “average relative tumor volume” value (day 3 after administration, 100 mg/kg/day i.v.) was 0.7. For the same molecule, the “average relative tumor volume” value (day 5 after administration, 50 mg/kg/day i.v.) was 2.5, the “average relative tumor volume” value (day 5 after administration, 100 mg/kg/day i.v.) was 1.0 and the “average relative tumor volume” value (day 7 after administration, 50 mg/kg/day i.v.) was 2.5. For the same molecule, the “average relative tumor volume” value (day 7 after administration, 100 mg/kg/day i.v.) was 3.3, the “average relative tumor volume” value (day 9 after administration, 50 mg/kg/day i.v.) was 6.7 and the “average relative tumor volume” value (day 9 after administration, 100 mg/kg/day i.v.) was 5.0. The “average relative tumor volume” value (day 12 after administration, 50 mg/kg/day i.v.) was 10, the “average relative tumor volume” value (day 12 after administration, 100 mg/kg/day i.v.) was 11 and the “average relative tumor volume” value (day 14 after administration, 50 mg/kg/day i.v.) was 13. The “average relative tumor volume” value (day 14 after administration, 100 mg/kg/day i.v.) was 12.
